The structures appear in SMILES notation. Bounds are passed on as bounds.

Usually IC50 stands for the concentration at which inhibition is half-maximal. Read a high IC50 as weaker potency in that assay.

The subject of the assay is vesicular stomatitis virus particles (VSV) pseudotyped with EboV Zaire GP. Briefly: microbe, parasite or virus in culture. The settings on record: Vesicular stomatitis virus. It is filed as cell-based.
Take `O=C(CC12CC3CC(CC(C3)C1)C2)NCC(=O)N1CCN(Cc2cc(Br)ccc2O)CC1` [Compound 1026]: the IC50 was in the range of 300 to 500 nM.
Then `COC(=O)c1ccc(COc2ccc(Br)cc2CN2CCN(C(=O)CNC(=O)CC34CC5CC(CC(C5)C3)C4)CC2)cc1` [Compound 1111], with 13 nM.
With `COC(=O)c1ccc(COc2ccc(F)cc2CN2CCN(C(=O)CNC(=O)CC34CC5CC(CC(C5)C3)C4)CC2)cc1` [Compound 1112], the IC50 is below 2000 nM.
`COC(=O)c1ccc(COc2ccc([N+](=O)[O-])cc2CN2CCN(C(=O)CNC(=O)CC34CC5CC(CC(C5)C3)C4)CC2)cc1` [Compound 1113] gave an IC50 below 2000 nM.
Molecule `COC(=O)c1ccc(COc2ccc(C)cc2CN2CCN(C(=O)CNC(=O)CC34CC5CC(CC(C5)C3)C4)CC2)cc1` [Compound 1114] displayed a 50% inhibitory concentration (IC50) below 2000 nM.
Then `COC(=O)c1ccc(COc2ccc(OC)cc2CN2CCN(C(=O)CNC(=O)CC34CC5CC(CC(C5)C3)C4)CC2)cc1` [Compound 1115], with 1400 nM.
Then `COC(=O)c1ccc(COc2ccc(C#N)cc2CN2CCN(C(=O)CNC(=O)CC34CC5CC(CC(C5)C3)C4)CC2)cc1` [Compound 1117], with 50 nM; and `COC(=O)c1ccc(COc2ccc(Cl)cc2CN2CCN(C(=O)CNC(=O)CC34CC5CC(CC(C5)C3)C4)CC2)cc1` [Compound 1118], with 1 nM; and `COC(=O)c1ccc(COc2ccccc2C(C)N2CCN(C(=O)CNC(=O)CC34CC5CC(CC(C5)C3)C4)CC2)cc1` (centres unmarked) [Compound 1122], with around 2000 nM.
Then `COC(=O)c1ccc(CCc2ccccc2CN2CCN(C(=O)CNC(=O)CC34CC5CC(CC(C5)C3)C4)CC2)cc1` [Compound 1123], with 20 nM.
Molecule `O=C(Cc1cccc2ccccc12)NCC(=O)N1CCN(Cc2ccccc2OCc2ccc(Br)cc2)CC1` [Compound 1136] returned a half-inhibitory concentration (IC50) above 2000 nM.
Consider `CC(C)(CC(=O)NCC(=O)N1CCN(Cc2ccccc2OCc2ccc(Br)cc2)CC1)C1CCCCC1` [Compound 1138], for which the IC50 is above 2000 nM.
Next, `O=C(CC12CC3CC(C1)CC(c1ccccc1)(C3)C2)NCC(=O)N1CCN(Cc2ccccc2OCc2ccc(Br)cc2)CC1` [Compound 1141]: 700 nM; `CC1(CC(=O)NCC(=O)N2CCN(Cc3ccccc3OCc3ccc(Br)cc3)CC2)CCCCC1` [Compound 1142]: 520 nM; `O=C(CC12CC3CC(CC(Cl)(C3)C1)C2)NCC(=O)N1CCN(Cc2ccccc2OCc2ccc(Br)cc2)CC1` [Compound 1243]: 500 nM.
With `O=C(CC12CC3CC(CC(O)(C3)C1)C2)NCC(=O)N1CCN(Cc2ccccc2OCc2ccc(Br)cc2)CC1` [Compound 1244], half-maximal inhibition (IC50) required 500 nM.
Then `O=C(CC12CC3CC(CC(Br)(C3)C1)C2)NCC(=O)N1CCN(Cc2ccccc2OCc2ccc(Br)cc2)CC1` [Compound 1245], with 600 nM; and `O=C(CC12CC3CC(C1)CC(n1cncn1)(C3)C2)NCC(=O)N1CCN(Cc2ccccc2OCc2ccc(Br)cc2)CC1` [Compound 1246], with below 2000 nM.
Molecule `O=C(CC12CC3CC(CC(C3)C1)C2)NCC(=O)N1CCN(Cc2cc(Cl)ccc2O)CC1` [Compound 1249, 2-((1R,3R,5S)-Adamantan-1-yl)-N-(2-(4-(5-chloro-2-hydroxybenzyl)piperazin-1-yl)-2-oxoethyl)acetamide] had an IC50 of 200 nM.
For `Nc1ccc(CN2CCN(C(=O)CNC(=O)CC34CC5CC(CC(C5)C3)C4)CC2)cc1Cl` [Compound 1250], the IC50 came to 800 nM.
Then `CN(C)c1ccc(CN2CCN(C(=O)CNC(=O)CC34CC5CC(CC(C5)C3)C4)CC2)cc1Cl` [Compound 1251], with 1700 nM.
Next, `Nc1cc(OCc2ccc(Br)cc2)c(CN2CCN(C(=O)CNC(=O)CC34CC5CC(CC(C5)C3)C4)CC2)cc1Cl` [Compound 1252]: 800 nM; `COC(=O)c1ccc(/C=C/c2ccccc2CN2CCN(C(=O)CNC(=O)CC34CC5CC(CC(C5)C3)C4)CC2)cc1` [Compound 1253]: 1500 nM.
